From patent US20250368697A1, “MODIFIED PEPTIDE DERIVED FROM URECHIS UNICINCTUS IN PREPARATION OF DRUG FOR TREATING ALCOHOLIC LIVER DISEASE” (Beijing Institute of Petrochemical Technology, priority 2024, published 2025)
Where two headings read alike, the source gives them in different places. Where no end group is shown, it is not given here.

Key:
[1] = system: Cytochrome P450 2E1 (CYP2E1); assay: CYP2E1 content in alcoholic damaged HepG2 cells (ELISA); type: cell-based, human; settings: 500 mM ethanol-damaged HepG2
Description: (§1) HepG2 cells are collected, digested, centrifuged, and resuspended. The HepG2 cells are then seeded into a 6-well plate at a density of 1×10^6 cells per well, with 1.6 mL of cell suspension added to each well. After incubating the plate in a 37° C., 5% CO2 incubator for 24 hours, 200 μL of distilled water is added to the blank wells as the blank group. Referring to Section 1.2.2.2 and the preparation of blank group cell sample, an anhydrous ethanol-induced damage model is established. The HepG2 cells are damaged with 500 mM anhydrous ethanol for 24 hours. The model group receives 200 μL of distilled water, while the positive control wells receive 200 μL of NAC at a final concentration of 3 mM. The treatment wells receive 200 μL of the modified peptide derived from Urechis unicinctus of F2-1 at final concentrations of 200 μM, 300 μM, and 400 μM (dissolved in water). After adding the modeling solution, the plate is incubated in a 37° C., 5% CO2 incubator for an additional 24 hours. The 6-well plate is then taken out and placed on ice. All liquids in the wells are discarded, and the cells are washed three times with pre-chilled phosphate buffer solution (PBS). High-efficiency radio immunoprecipitation assay (RIPA) lysis buffer is added, and the HepG2 cells are lysed on ice for 30 minutes. The lysates are then centrifuged at 12,000 rpm for 10 minutes at low temperature, and the white precipitate is discarded.
(§2) ELISA kits are purchased from Hangzhou Leyi Biotechnology Co., Ltd. An ELISA plate reader is used to measure indicators such as the interleukin-1β (IL-1β) ELISA kit, interleukin-6 (IL-6) ELISA kit, and Cytochrome P450 2E1 (CYP2E1) ELISA kit.

[2] = system: HepG2 cells; assay: Biochemical indicators (ALT, AST, TC, TG, HDL-C, LDL-C) in alcoholic damaged HepG2 cells; type: cell-based, human; settings: 3 mM (positive control); 500 mM ethanol-damaged HepG2
Description: as §1
Reagent kits are purchased from Nanjing Jiancheng Bioengineering Institute. An enzyme-linked immunosorbent assay (ELISA) plate reader is used to measure biochemical indicators such as alanine aminotransferase (ALT), aspartate aminotransferase (AST), triglycerides (TG), total cholesterol (TC), high-density lipoprotein cholesterol (HDL-C), and low-density lipoprotein cholesterol (LDL-C).

[3] = system: interleukin-1β (IL-1β); assay: IL-1β content in alcoholic damaged HepG2 cells (ELISA); type: cell-based, human; settings: 3 mM (positive control); 500 mM ethanol-damaged HepG2
Description: as §1, with “All liquids in the wells are discarded, and the cells are washed three times with pre-chilled phosphate buffer solution (PBS). High-efficiency radio immunoprecipitation assay (RIPA) lysis buffer is added, and the HepG2 cells are lysed on ice for 30 minutes. The lysates are then centrifuged at 12,000 rpm for 10 minutes at low temperature, and the white precipitate is discarded.” left out
as §2

[4] = system: interleukin-6 (IL-6); assay: IL-6 content in alcoholic damaged HepG2 cells (ELISA); type: cell-based, human; settings: 3 mM (positive control); 500 mM ethanol-damaged HepG2
Description: as §1, with “All liquids in the wells are discarded, and the cells are washed three times with pre-chilled phosphate buffer solution (PBS). High-efficiency radio immunoprecipitation assay (RIPA) lysis buffer is added, and the HepG2 cells are lysed on ice for 30 minutes. The lysates are then centrifuged at 12,000 rpm for 10 minutes at low temperature, and the white precipitate is discarded.” left out
as §2

[5] = system: HepG2 cells; type: cell-based; settings: human, 24 h
Description: When a cell density of the cells reached 90%, the cells are digested and passaged to form a single-cell suspension. The cell concentration is determined using a hemocytometer, and the suspension is adjusted to 8×10^4 cells per well. A volume of 180 μL of the cell suspension is added to each well of a 96-well plate. The 96-well plate is then incubated in a 37° C., 5% CO2 cell incubator for 24 hours. The cells are subjected to alcoholic damage for 24 hours using gradient concentrations of anhydrous ethanol at […] (final concentrations). A blank group received no addition. All solutions in the 96-well plate are aspirated, and 100 μL of a 10% CCK-8 solution is added to each well. After incubation for 1 hour, the absorbance is measured at 450 nanometers (nm) using a microplate reader. The cell viability is calculated using the following formula: […]
HepG2 cells are collected, digested, centrifuged, and resuspended. The HepG2cells are then seeded into a 96-well plate at a density of 8×10^4 cells per well, with 160 μL of cell suspension added to each well. After incubating the plate in a 37° C., 5% CO2 incubator for 24 hours, 20 μL of distilled water is added to a blank well as the blank group. Referring to Section 1.2.2.2 and the preparation of blank group cell sample, an anhydrous ethanol-induced damage model is established. The HepG2 cells are damaged with 500 mM anhydrous ethanol for 24 hours. The model group received 20 μL of distilled water, while the positive control wells received 20 μL of N-acetylcysteine (NAC) at a final concentration of 3 mM. The treatment wells receive 20 μL of the modified peptide derived from Urechis unicinctus of F2-1 at final concentrations of 200 μM, 300 μM, and 400 μM (dissolved in water). The 96-well plate is then incubated in a 37° C., 5% CO2 incubator for 24 hours after adding the modeling solution. […] The absorbance is measured at 450 nm using a microplate reader after 1 hour of incubation. The cell viability is calculated using the following formula: […]

| Compound | CYP2E1 content in HepG2 cells ([1]; 3 mM (positive control)) [U/mg prot] | ALT level in HepG2 cells [2] [U/L] | AST level in HepG2 cells [2] [U/L] | HDL-C level in HepG2 cells [2] [mmol/L] | LDL-C level in HepG2 cells [2] [mmol/L] | TC level in HepG2 cells [2] [mmol/L] | TG level in HepG2 cells [2] [mmol/L] | IL-1β content in HepG2 cells [3] [pg/mL] | IL-6 content in HepG2 cells [4] [pg/mL] | CYP2E1 content in HepG2 cells ([1]; 200 μM (low dose), vs model group) | CYP2E1 content in HepG2 cells ([1]; 300 μM (medium dose), vs model group) | CYP2E1 content in HepG2 cells ([1]; 400 μM (high dose)) [U/mg prot] | cell viability ([5]; 200 μM) [%] | cell viability ([5]; 300 μM) [%] | cell viability ([5]; 400 μM) [%] |
| --- | --- | --- | --- | --- | --- | --- | --- | --- | --- | --- | --- | --- | --- | --- | --- |
| CC(=O)N[C@@H](CS)C(=O)O [NAC, N-acetylcysteine] | 7.80±0.96 | 7.93±0.14 | 8.26±0.30 | 0.12 ± 0.02 | 0.01 ± 0.00 | 0.06 ± 0.02 | 0.49 ± 0.00 | 123.36 ± 1.67 | 87.25 ± 5.30 |  |  |  |  |  |  |
| IHVKF [F2-1, IHVKF] |  |  |  |  |  |  |  |  |  | do not significantly reduce | do not significantly reduce | 7.97±0.78 | 80.65±5.67 | 85.39±9.61 | 94.58±4.22 |
